Reference: US20090105283A1, “3-HYDROQUINAZOLIN-4-ONE DERIVATIVES FOR USE AS STEAROYL CoA DESATURASE INHIBITORS” (priority 2007, published 2009)
Where “and” joins values, the source holds several entries; their conditions need not be identical. Equal values may be shown once.

Target: T1, stearoyl-CoA desaturase (SCD) (Rattus norvegicus, UniProt P07308)
T1 construct: The microsomes were quickly thawed and added to assay buffer so that a concentration of 0.4 mg/ml was achieved; from tissue
T1 sequence (P07308 1-358): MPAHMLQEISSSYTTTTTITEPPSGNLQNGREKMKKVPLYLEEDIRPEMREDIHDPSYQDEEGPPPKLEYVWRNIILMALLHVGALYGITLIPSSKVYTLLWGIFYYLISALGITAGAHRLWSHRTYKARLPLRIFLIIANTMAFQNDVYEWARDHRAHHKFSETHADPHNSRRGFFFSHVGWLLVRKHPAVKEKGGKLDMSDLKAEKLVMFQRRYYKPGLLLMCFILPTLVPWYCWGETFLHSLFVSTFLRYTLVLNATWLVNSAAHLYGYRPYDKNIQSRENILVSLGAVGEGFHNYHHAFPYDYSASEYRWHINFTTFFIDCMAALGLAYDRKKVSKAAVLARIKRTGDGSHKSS
Assay: SCD assay with rat liver microsomes ([3H]stearoyl CoA, adapted from Talamo and Bloch)
Format: biochemical
Conditions: Table 1; rat liver microsomes 0.2 mg/ml assay final, [3H]stearoyl CoA substrate, 30 min preincubation, 45 min reaction, room temperature
Text: Male Spraque Dawley Rats were placed on regimented fasting protocol for one week to stimulate SCD enzymatic activity. 48-hour periods were alternated between feeding and fasting to induce and down-regulate SCD activity with SCD activity being induced via carbohydrate rich diet prior to liver perfusion and collection.
The rats were anesthetized with Isoflurane inhalation anesthetic, the liver perfused with cold phosphate buffered saline (PBS), weighed, and chilled in cold homogenization buffer (250 mM sucrose, 10 mM Tris, 1 mM EDTA, pH 7.6.
The livers were finely minced and placed in homogenization tube. 40 mL of homogenization buffer was added to the homogenization tube and the liver homogenized and centrifuged in a pre-chilled […] for 10 min at 4° C.
Following centrifugation, the supernatant was collected and the pellet removed and discarded. The supernatant was centrifuge at 10,000 G for 35 minutes. Following centrifugation, the supernatant was collect and the pellet discarded. The supernatant was then centrifuged in a pre-chilled 45-Ti rotor at 130,000 G (41,000 RPM) for 90 minutes at 4° C.
The supernatant was then aspirated off and the collected microsomal pellet washed in 25 mL of Glycerol PBS (1×PBS 7.4, 20% Glycerol) and resuspended in 4-5 volumes of Glycerol PBS.
The protein concentration of the microsomal preparation was determined by BCA assay (Pierce) and the microsomes were aliquoted and stored at −80° C.
Biobeads were ground to a smaller size in a mortar and pestle and resuspended in 3.6% TCA. The beads were then filtered through […] mesh.
SCD was determined in the desaturase assay buffer. This assay buffer contained 0.1 M Tris buffer, pH 7.2, 2 mM NADH, 4.8 mM ATP, 0.5 mM CoA, 4.8 mM MgCl2, and 0.1% BSA.
1 μl of each compound of Formula I was added to an assay plate by a low volume (0.5-10 μL) multichannel pipette. A DMSO control was also prepared. The microsomes were quickly thawed and added to assay buffer so that a concentration of 0.4 mg/ml was achieved (0.2 mg/ml assay final). 50 μl of the microsome suspension in assay buffer was then added into each well in the compound assay plate, the plate was covered, and the microsomes preincubated with the compounds for 30 minutes on the orbital shaker, 50-75 rpm, at room temperature.
The reaction mixtures were then incubated for 45 minutes on the orbital shaker at 50-75 rpm at room temperature.
The reaction was terminated by the addition of 10 μl of 21% trichloroacetic acid (TCA) to the reaction mixture followed incubation on the orbital shaker for 30 minutes at 50-75 rpm at room temperature followed by centrifugation for 5 minutes at 3700 rpm.
50 μl of a 6% Bio-Bead suspension in H2O was added to the reaction mixture and the assay plate was sealed. The Bio-Bead mixture was incubated on the orbital shaker for 1 hour, 100-150 rpm at room temperature, and then the mixture was centrifuged at 2000 g for 5 minutes to pellet the Bio-Beads.
25 μl of the supernatant was harvested from each well and transferred to a detection plate. 100 μl of OptiPhase SuperMix scinitillation cocktail (containing sufficient NaOH to neutralize the TCA) was added and the solutions mixed by vigorous shaking (300-400 rpm) for 5 minutes at room temperature.

IC50	SMILES
4380 nM	O=C(Nc1ccc2ncn(Cc3ccc(Cl)c(Cl)c3)c(=O)c2c1)OCCc1ccccc1 [LXXI, N-{3-[(3,4-dichlorophenyl)methyl]-4-oxo(3-hydroquinazolin-6-yl)}(2-phenylethoxy)carboxamide]
290 nM	CC(=O)OCC(=O)Nc1ccc2c(=O)n(Cc3cccc(F)c3)cnc2c1 [LXXII, (N-{3-[(3-fluorophenyl)methyl]-4-oxo-3-hydroquinazolin-7-yl}carbamoyl)methyl acetate]
290 nM	O=C(Nc1ccc2c(=O)n(Cc3ccc(F)c(Cl)c3)cnc2c1)OCc1ccccc1 [LXXIII, N-{3-[(3-chloro-4-fluorophenyl)methyl]-4-oxo(3-hydroquinazolin-7-yl)}(phenylmethoxy)carboxamide]
120 nM	O=C(Nc1ccc2c(=O)n(Cc3ccc(F)c(Cl)c3)cnc2c1)OCc1cccnc1 [LXXIV, N-{3-[(3-chloro-4-fluorophenyl)methyl]-4-oxo(3-hydroquinazolin-7-yl)}(3-pyridylmethoxy)carboxamide]
1000 nM	O=C(Nc1ccc2ncn(Cc3ccc(Cl)c(Cl)c3)c(=O)c2c1)OCc1ccncc1 [LXXIX, N-{3-[(3,4-dichlorophenyl)methyl]-4-oxo(3-hydroquinazolin-6-yl)}(4-pyridylmethoxy)carboxamide]
1090 nM	CC(=O)OCC(=O)Nc1ccc2c(=O)n(Cc3ccc(F)c(Cl)c3)cnc2c1 [LXXV, (N-{3-[(3-chloro-4-fluorophenyl)methyl]-4-oxo-3-hydroquinazolin-7-yl}carbamoyl)methyl acetate]
1340 nM	O=C(Nc1ccc2c(=O)n(Cc3cccc(F)c3)cnc2c1)OCc1cccnc1 [LXXVI, N-{3-[(3-fluorophenyl)methyl]-4-oxo(3-hydroquinazolin-7-yl)}(3-pyridylmethoxy)carboxamide]
250 nM	O=C(Nc1ccc2c(=O)n(Cc3ccc(Cl)c(F)c3)cnc2c1)OCc1cccnc1 [LXXVII, N-{3-[(4-chloro-3-fluorophenyl)methyl]-4-oxo(3-hydroquinazolin-7-yl)}(3-pyridylmethoxy)carboxamide]
1020 nM	CC(=O)OCC(=O)Nc1ccc2c(=O)n(Cc3ccc(Cl)c(F)c3)cnc2c1 [LXXVIII, (N-{3-[(4-chloro-3-fluorophenyl)methyl]-4-oxo-3-hydroquinazolin-7-yl}carbamoyl)methyl acetate]
670 nM	N#Cc1cccc(COC(=O)Nc2ccc3ncn(Cc4ccc(Cl)c(Cl)c4)c(=O)c3c2)c1 [LXXX, N-{3-[(3,4-dichlorophenyl)methyl]-4-oxo(3-hydroquinazolin-6-yl)}[(3-cyanophenyl)methoxy]carboxamide]
3120 nM	O=C(CO)Nc1ccc2c(=O)n(Cc3ccc(Cl)cc3)cnc2c1 [LXXXI, N-{3-[(4-chlorophenyl)methyl]-4-oxo(3-hydroquinazolin-7-yl)}-2-hydroxyacetamide]
350 nM	O=C(CO)Nc1ccc2c(=O)n(Cc3ccc(Cl)c(Cl)c3)cnc2c1 [LXXXII, N-{3-[(3,4-dichlorophenyl)methyl]-4-oxo(3-hydroquinazolin-7-yl)}-2-hydroxyacetamide]
210 nM	O=C(Nc1ccc2c(=O)n(Cc3ccc(Cl)c(F)c3)cnc2c1)OCc1ccccc1 [LXXXIII, N-{3-[(4-chloro-3-fluorophenyl)methyl]-4-oxo(3-hydroquinazolin-7-yl)}(phenylmethoxy)carboxamide]
11000 nM	CN(CCOC(=O)Nc1ccc2ncn(Cc3ccc(Cl)c(Cl)c3)c(=O)c2c1)Cc1ccccc1 [LXXXIV, N-{3-[(3,4-dichlorophenyl)methyl]-4-oxo(3-hydroquinazolin-6-yl)}{2-[methylbenzylamino]ethoxy}carboxamide]
780 nM	O=C(Nc1ccc2ncn(Cc3ccc(Cl)c(Cl)c3)c(=O)c2c1)OCc1ccccn1 [LXXXIX, N-{3-[(3,4-dichlorophenyl)methyl]-4-oxo(3-hydroquinazolin-6-yl)}(2-pyridylmethoxy)carboxamide]
2970 nM	O=C(Nc1ccc2ncn(Cc3ccc(Cl)c(Cl)c3)c(=O)c2c1)OCC1CC1 [LXXXV, N-{3-[(3,4-dichlorophenyl)methyl]-4-oxo(3-hydroquinazolin-6-yl)}(cyclopropylmethoxy)carboxamide]
360 nM	CN(C)CC(=O)OCC(=O)Nc1ccc2ncn(Cc3ccc(Cl)c(Cl)c3)c(=O)c2c1 [LXXXVI, (N-{3-[(3,4-dichlorophenyl)methyl]-4-oxo-3-hydroquinazolin-6-yl}carbamoyl)methyl 2-(dimethylamino)acetate]
2320 nM and 2230 nM	O=C(CO)Nc1ccc2c(=O)n(Cc3ccc(F)c(Cl)c3)cnc2c1 [LXXXVII, N-{3-[(3-chloro-4-fluorophenyl)methyl]-4-oxo(3-hydroquinazolin-7-yl)}-2-hydroxyacetamide]
3180 nM	O=C(NCc1ccccc1)Nc1ccc2ncn(Cc3ccc(Cl)c(Cl)c3)c(=O)c2c1 [V, N-{3-[(3,4-dichlorophenyl)methyl]-4-oxo(3-hydroquinazolin-6-yl)}[benzylamino]carboxamide]
20000 nM	Cc1nc2ccc(NC(=O)OCc3ccccc3)cc2c(=O)n1Cc1ccc(Cl)c(Cl)c1 [VI, N-{3-[(3,4-dichlorophenyl)methyl]-2-methyl-4-oxo(3-hydroquinazolin-6-yl)}(phenylmethoxy)carboxamide]
7900 nM	CC(C)COC(=O)Nc1ccc2ncn(Cc3ccc(Cl)c(Cl)c3)c(=O)c2c1 [VII, N-{3-[(3,4-dichlorophenyl)methyl]-4-oxo(3-hydroquinazolin-6-yl)}(2-methylpropoxy)carboxamide]
190 nM	O=C(Nc1ccc2ncn(Cc3ccc(Cl)cc3)c(=O)c2c1)OCc1ccccc1 [VIII, N-{3-[(4-chlorophenyl)methyl]-4-oxo(3-hydroquinazolin-6-yl)}(phenylmethoxy)carboxamide]
1500 nM	C=CCOC(=O)Nc1ccc2ncn(Cc3ccc(Cl)c(Cl)c3)c(=O)c2c1 [X, N-{3-[(3,4-dichlorophenyl)methyl]-4-oxo(3-hydroquinazolin-6-yl)}prop-2-enyloxycarboxamide]
310 nM	CN(C)CC(=O)OCC(=O)Nc1ccc2c(=O)n(Cc3ccc(Cl)c(Cl)c3)cnc2c1 [XC, (N-{3-[(3,4-dichlorophenyl)methyl]-4-oxo-3-hydroquinazolin-7-yl}carbamoyl)methyl 2-(dimethylamino)acetate]
3770 nM	CCOC(=O)COC(=O)Nc1ccc2c(=O)n(Cc3ccc(Cl)c(Cl)c3)cnc2c1 [XCI, ethyl 2-(N-{3-[(3,4-dichlorophenyl)methyl]-4-oxo-3-hydroquinazolin-7-yl}carbamoyloxy)acetate]
11700 nM	COCCOCCOC(=O)Nc1ccc2ncn(Cc3ccc(Cl)c(Cl)c3)c(=O)c2c1 [XCII, N-{3-[(3,4-dichlorophenyl)methyl]-4-oxo(3-hydroquinazolin-6-yl)}[2-(2-methoxyethoxy)ethoxy]carboxamide]
6200 nM	COCCNC(=O)Nc1ccc2ncn(Cc3ccc(Cl)c(Cl)c3)c(=O)c2c1 [XCIII, N-{3-[(3,4-dichlorophenyl)methyl]-4-oxo(3-hydroquinazolin-6-yl)}[(2-methoxyethyl)amino]carboxamide]
1700 nM	CC(=O)OCC(=O)Nc1ccc2ncn(Cc3cccc(C(F)(F)F)c3)c(=O)c2c1 [XCIV, [N-(4-oxo-3-{[3-(trifluoromethyl)phenyl]methyl}-3-hydroquinazolin-6-yl)carbamoyl]methyl acetate]
1160 nM	O=C(CO)Nc1ccc2ncn(Cc3ccc(Cl)c(F)c3)c(=O)c2c1 [XCIX, N-{3-[(4-chloro-3-fluorophenyl)methyl]-4-oxo(3-hydroquinazolin-6-yl)}-2-hydroxyacetamide]
